Where two headings read alike, the source gives them in different places.
Tested on: GRMD plasma proteins
Format: in vivo, dog
[1] = Post-Treatment to GRMD baseline, Decreased in GRMD

SMILES: O=c1ccc(-c2cnc(OCC(F)(F)F)nc2)nn1Cc1cncc(F)c1 [EDG-5506]
- Change from GRMD Baseline (fraction) (Human Chorionic Gonadotropin (CGA CGB), Post-Treatment to GRMD baseline): 2.5964 fraction
- Change from GRMD Baseline (fraction) (Insulin (INS), EDG-5506 treatment to GRMD baseline): 0.2426 fraction
- Change from GRMD Baseline (fraction) (Insulin (INS), Post-Treatment to GRMD baseline): 0.0736 fraction
- Change from GRMD Baseline (fraction) (Interferon lambda-2 (IFNL2), EDG-5506 treatment to GRMD baseline): 0.1683 fraction
- Change from GRMD Baseline (fraction) (Interferon lambda-2 (IFNL2), Post-Treatment to GRMD baseline): 0.4121 fraction
- Change from GRMD Baseline (fraction) (Interleukin-12 (IL12A IL12B), EDG-5506 treatment to GRMD baseline): 0.1563 fraction
- Change from GRMD Baseline (fraction) (Interleukin-12 (IL12A IL12B), Post-Treatment to GRMD baseline): 0.0477 fraction
- Change from GRMD Baseline (fraction) (Leucine-rich repeat transmembrane protein FLRT2 (FLRT2), EDG-5506 treatment to GRMD baseline): 0.1078 fraction
- Change from GRMD Baseline (fraction) (Leucine-rich repeat transmembrane protein FLRT2 (FLRT2), Post-Treatment to GRMD baseline): -0.1244 fraction
- Change from GRMD Baseline (fraction) (Megakaryocyte-associated tyrosine-protein kinase (MATK), EDG-5506 treatment to GRMD baseline): 0.083 fraction
- Change from GRMD Baseline (fraction) (Megakaryocyte-associated tyrosine-protein kinase (MATK), Post-Treatment to GRMD baseline): 0.0043 fraction
- Change from GRMD Baseline (fraction) (Mitogen-activated protein kinase 9 (MAPK9), EDG-5506 treatment to GRMD baseline): 0.1873 fraction
- Change from GRMD Baseline (fraction) (Mitogen-activated protein kinase 9 (MAPK9), Post-Treatment to GRMD baseline): -0.0197 fraction
- Change from GRMD Baseline (fraction) (Myc proto-oncogene protein (MYC), EDG-5506 treatment to GRMD baseline): 0.0043 fraction
- Change from GRMD Baseline (fraction) (Myc proto-oncogene protein (MYC), Post-Treatment to GRMD baseline): 0.0245 fraction
- Change from GRMD Baseline (fraction) (Nascent polypeptide-associated complex subunit alpha (NACA), EDG-5506 treatment to GRMD baseline): -0.0939 fraction
- Change from GRMD Baseline (fraction) (Nascent polypeptide-associated complex subunit alpha (NACA), Post-Treatment to GRMD baseline): -0.019 fraction
- Change from GRMD Baseline (fraction) (Neurexin-1-beta (NRXN1), EDG-5506 treatment to GRMD baseline): 0.163 fraction
- Change from GRMD Baseline (fraction) (Neurexin-1-beta (NRXN1), Post-Treatment to GRMD baseline): 0.0798 fraction
- Change from GRMD Baseline (fraction) (Neuropilin-1 (NRP1), EDG-5506 treatment to GRMD baseline): -0.1066 fraction
- Change from GRMD Baseline (fraction) (Neuropilin-1 (NRP1), Post-Treatment to GRMD baseline): -0.2144 fraction
- Change from GRMD Baseline (fraction) (Neutrophil elastase (ELANE), EDG-5506 treatment to GRMD baseline): 0.113 fraction
- Change from GRMD Baseline (fraction) (Neutrophil elastase (ELANE), Post-Treatment to GRMD baseline): 0.0205 fraction
- Change from GRMD Baseline (fraction) (Neutrophil-activating peptide 2 (PPBP), EDG-5506 treatment to GRMD baseline): -0.0999 fraction
- Change from GRMD Baseline (fraction) (Neutrophil-activating peptide 2 (PPBP), Post-Treatment to GRMD baseline): 0.0464 fraction
- Change from GRMD Baseline (fraction) (Osteocalcin (BGLAP), EDG-5506 treatment to GRMD baseline): 0.2208 fraction
- Change from GRMD Baseline (fraction) (Osteocalcin (BGLAP), Post-Treatment to GRMD baseline): -0.0043 fraction
- Change from GRMD Baseline (fraction) (PILR alpha-associated neural protein (PIANP), EDG-5506 treatment to GRMD baseline): 0.0458 fraction
- Change from GRMD Baseline (fraction) (PILR alpha-associated neural protein (PIANP), Post-Treatment to GRMD baseline): -0.0155 fraction
- Change from GRMD Baseline (fraction) (Periostin (POSTN), EDG-5506 treatment to GRMD baseline): 0.1077 fraction
- Change from GRMD Baseline (fraction) (Periostin (POSTN), Post-Treatment to GRMD baseline): -0.1102 fraction
- Change from GRMD Baseline (fraction) (Pleiotrophin (PTN), EDG-5506 treatment to GRMD baseline): 0.0122 fraction
- Change from GRMD Baseline (fraction) (Pleiotrophin (PTN), Post-Treatment to GRMD baseline): -0.0998 fraction
- 3-hydroxyisobutyrate dehydrogenase, mitochondrial (HIBADH): Change from GRMD Baseline (fraction) [1]: 0.0399 fraction
- 14-3-3 protein beta/alpha (YWHAB): Change from GRMD Baseline (fraction) [1]: -0.1281 fraction
- 14-3-3 protein sigma (SFN): Change from GRMD Baseline (fraction) [1]: -0.1134 fraction
- 72 kDa type IV collagenase (MMP2): Change from GRMD Baseline (fraction) [1]: -0.3542 fraction
- Adrenomedullin (ADM): Change from GRMD Baseline (fraction) [1]: -0.0931 fraction
- Aggrecan core protein (ACAN): Change from GRMD Baseline (fraction) [1]: -0.1233 fraction
- Alpha-synuclein (SNCA): Change from GRMD Baseline (fraction) [1]: -0.0439 fraction
- Apolipoprotein B (APOB): Change from GRMD Baseline (fraction) [1]: -0.0228 fraction
- Appetite-regulating hormone (GHRL): Change from GRMD Baseline (fraction) [1]: 0.0233 fraction
- Atrial natriuretic factor (NPPA): Change from GRMD Baseline (fraction) [1]: 0.0027 fraction
- BDNF/NT-3 growth factors receptor (NTRK2): Change from GRMD Baseline (fraction) [1]: -0.0065 fraction
- BH3-interacting domain death agonist (BID): Change from GRMD Baseline (fraction) [1]: 0.0184 fraction
- Bcl-2-related protein A1 (BCL2A1): Change from GRMD Baseline (fraction) [1]: 0.0661 fraction
- Bone morphogenetic protein 6 (BMP6): Change from GRMD Baseline (fraction) [1]: -0.0925 fraction
- Bone morphogenetic protein 10 (BMP10): Change from GRMD Baseline (fraction) [1]: -0.0513 fraction
- C-X-C motif chemokine 10 (CXCL10): Change from GRMD Baseline (fraction) [1]: 0.0358 fraction
- C-type mannose receptor 2 (MRC2): Change from GRMD Baseline (fraction) [1]: -0.1031 fraction
- CD166 antigen (ALCAM): Change from GRMD Baseline (fraction) [1]: 0.0066 fraction
- Cadherin-5 (CDH5): Change from GRMD Baseline (fraction) [1]: -0.1425 fraction
- Carboxypeptidase E (CPE): Change from GRMD Baseline (fraction) [1]: 0.0109 fraction
- Cell adhesion molecule 1 (CADM1): Change from GRMD Baseline (fraction) [1]: -0.1579 fraction
- Chromogranin-A (CHGA): Change from GRMD Baseline (fraction) [1]: 0.0248 fraction
- Ciliary neurotrophic factor receptor subunit alpha (CNTFR): Change from GRMD Baseline (fraction) [1]: -0.0624 fraction
- Ck-beta-8-1 (CCL23): Change from GRMD Baseline (fraction) [1]: 0.0454 fraction
- Coiled-coil domain-containing protein 80 (CCDC80): Change from GRMD Baseline (fraction) [1]: 0.0372 fraction
- Collagen alpha-1(VIII) chain (COL8A1): Change from GRMD Baseline (fraction) [1]: 0.1221 fraction
- Collagenase 3 (MMP13): Change from GRMD Baseline (fraction) [1]: -0.3148 fraction
- Collectin-12 (COLEC12): Change from GRMD Baseline (fraction) [1]: -0.0046 fraction
- Complement component C1q receptor (CD93): Change from GRMD Baseline (fraction) [1]: -0.1418 fraction
- Complement decay-accelerating factor (CD55): Change from GRMD Baseline (fraction) [1]: 0.0605 fraction
- Contactin-1 (CNTN1): Change from GRMD Baseline (fraction) [1]: -0.0113 fraction
- Corticotropin (POMC): Change from GRMD Baseline (fraction) [1]: 0.0912 fraction
- Cytotoxic and regulatory T-cell molecule (CRTAM): Change from GRMD Baseline (fraction) [1]: 0.2824 fraction
- Dickkopf-related protein 1 (DKK1): Change from GRMD Baseline (fraction) [1]: -0.0925 fraction
- Dickkopf-related protein 4 (DKK4): Change from GRMD Baseline (fraction) [1]: -0.1272 fraction
- E3 ubiquitin-protein ligase ZNRF3 (ZNRF3): Change from GRMD Baseline (fraction) [1]: 0.0469 fraction
- Ephrin type-A receptor 5 (EPHA5): Change from GRMD Baseline (fraction) [1]: -0.1823 fraction
- Ephrin-A2 (EFNA2): Change from GRMD Baseline (fraction) [1]: -0.0773 fraction
- Ephrin-A5 (EFNA5): Change from GRMD Baseline (fraction) [1]: -0.1613 fraction
- Epidermal growth factor receptor (EGFR): Change from GRMD Baseline (fraction) [1]: -0.0135 fraction
- Estradiol 17-beta-dehydrogenase 1 (HSD17B1): Change from GRMD Baseline (fraction) [1]: 0.0729 fraction
- Fatty acid-binding protein, epidermal (FABP5): Change from GRMD Baseline (fraction) [1]: 0.3761 fraction
- Fc receptor-like protein 3 (FCRL3): Change from GRMD Baseline (fraction) [1]: -0.0287 fraction
- GDNF family receptor alpha-2 (GFRA2): Change from GRMD Baseline (fraction) [1]: -0.0362 fraction
- Galectin-8 (LGALS8): Change from GRMD Baseline (fraction) [1]: 0.1492 fraction
- Galectin-9 (LGALS9): Change from GRMD Baseline (fraction) [1]: -0.0107 fraction
- Gamma-enolase (ENO2): Change from GRMD Baseline (fraction) [1]: -0.0983 fraction
- Gastrin-releasing peptide (GRP): Change from GRMD Baseline (fraction) [1]: 0.0411 fraction
- Glutamate carboxypeptidase 2 (FOLH1): Change from GRMD Baseline (fraction) [1]: 0.145 fraction
- Glypican-2 (GPC2): Change from GRMD Baseline (fraction) [1]: 0.075 fraction
- Gremlin-1 (GREM1): Change from GRMD Baseline (fraction) [1]: 0.1318 fraction
- Growth/differentiation factor 8 (MSTN): Change from GRMD Baseline (fraction) [1]: 0.065 fraction
- Growth/differentiation factor 11/8 (GDF11 MSTN): Change from GRMD Baseline (fraction) [1]: -0.0539 fraction
- Hemoglobin (HBA1 HBB): Change from GRMD Baseline (fraction) [1]: -0.0209 fraction
- Heparin cofactor 2 (SERPIND1): Change from GRMD Baseline (fraction) [1]: 0.014 fraction
- Hepatitis A virus cellular receptor 2 (HAVCR2): Change from GRMD Baseline (fraction) [1]: 0.0719 fraction
- High affinity immunoglobulin gamma Fc receptor I (FCGR1A): Change from GRMD Baseline (fraction) [1]: 0.0477 fraction
- Histone-lysine N-methyltransferase EHMT2 (EHMT2): Change from GRMD Baseline (fraction) [1]: -0.0469 fraction
- Hyaluronan and proteoglycan link protein 1 (HAPLN1): Change from GRMD Baseline (fraction) [1]: -0.1275 fraction
- Insulin-like growth factor 1 receptor (IGF1R): Change from GRMD Baseline (fraction) [1]: -0.1027 fraction
- Integrin alpha-V: beta-5 complex (ITGAV ITGB5): Change from GRMD Baseline (fraction) [1]: 0.0267 fraction
- Interleukin-4 receptor subunit alpha (IL4R): Change from GRMD Baseline (fraction) [1]: 0.0286 fraction
- Interleukin-18-binding protein (IL18BP): Change from GRMD Baseline (fraction) [1]: -0.0841 fraction
- Interstitial collagenase (MMP1): Change from GRMD Baseline (fraction) [1]: 0.1983 fraction
- Leucine-rich repeat transmembrane neuronal protein 3 (LRRTM3): Change from GRMD Baseline (fraction) [1]: 0.0593 fraction
- Limbic system-associated membrane protein (LSAMP): Change from GRMD Baseline (fraction) [1]: -0.0633 fraction
- Lymphocyte activation gene 3 protein (LAG3): Change from GRMD Baseline (fraction) [1]: 0.8111 fraction
- Lysosome membrane protein 2 (SCARB2): Change from GRMD Baseline (fraction) [1]: 0.1572 fraction
- MHC class I polypeptide-related sequence B (MICB): Change from GRMD Baseline (fraction) [1]: 0.6204 fraction
- Matrilin-2 (MATN2): Change from GRMD Baseline (fraction) [1]: -0.1616 fraction
- Melanoma-derived growth regulatory protein (MIA): Change from GRMD Baseline (fraction) [1]: -0.1058 fraction
- Moesin (MSN): Change from GRMD Baseline (fraction) [1]: 0.1568 fraction
- Muellerian-inhibiting factor (AMH): Change from GRMD Baseline (fraction) [1]: 0.0468 fraction
- NKG2D ligand 1 (ULBP1): Change from GRMD Baseline (fraction) [1]: -0.0033 fraction
- NT-3 growth factor receptor (NTRK3): Change from GRMD Baseline (fraction) [1]: -0.1478 fraction
- Netrin receptor UNC5C (UNC5C): Change from GRMD Baseline (fraction) [1]: -0.0587 fraction
- Neurogenic locus notch homolog protein 2 (NOTCH2): Change from GRMD Baseline (fraction) [1]: 0.0095 fraction
- Neurogenic locus notch homolog protein 3 (NOTCH3): Change from GRMD Baseline (fraction) [1]: -0.0751 fraction
- Nuclear receptor subfamily 1 group D member 1 (NR1D1): Change from GRMD Baseline (fraction) [1]: 0.0266 fraction
- Phospholipase A2 (PLA2G1B): Change from GRMD Baseline (fraction) [1]: -0.0833 fraction
- Placenta growth factor (PGF): Change from GRMD Baseline (fraction) [1]: -0.1111 fraction
- Plasminogen (PLG): Change from GRMD Baseline (fraction) [1]: 0.0803 fraction
- PolyUbiquitin K63-linked (UBC): Change from GRMD Baseline (fraction) [1]: 0.2532 fraction
- Proteasome activator complex subunit 3 (PSME3): Change from GRMD Baseline (fraction) [1]: 0.0489 fraction
- Protein S100-A4 (S100A4): Change from GRMD Baseline (fraction) [1]: -0.1235 fraction
- Protein amnionless (AMN): Change from GRMD Baseline (fraction) [1]: 0.002 fraction

From article PMC10178848, “Modulating fast skeletal muscle contraction protects skeletal muscle in animal models of Duchenne muscular dystrophy” (The Journal of Clinical Investigation, 2023)
